According to ChEMBL document CHEMBL4840352 (J Med Chem, 2021):
The source made the active and inactive calls. The calls are words filed in the database; no cut-off is given here.

What was measured:
[1] = test system: MOLM-13; assay: Antiproliferative activity against human MOLM-13 cells incubated for 48 hrs by CCK-8 assay; assay type: functional, cell-based; conditions: MOLM-13, 48 h
[2] = test system: MV4-11; assay: Antiproliferative activity against human MV4-11 cells incubated for 48 hrs by CCK-8 assay; assay type: functional, cell-based; conditions: MV4-11, 48 h
[3] = test system: Receptor-type tyrosine-protein kinase FLT3 (Homo sapiens), P36888 [UNDEFINED MUTATION]; assay: Induction of FLT3-ITD degradation in human MV4-11 cells after 24 hrs by Western blot analysis; assay type: cell-based
Chain of Receptor-type tyrosine-protein kinase FLT3 (Homo sapiens), P36888 [UNDEFINED MUTATION] (P36888 whole entry, looked up, change not shown): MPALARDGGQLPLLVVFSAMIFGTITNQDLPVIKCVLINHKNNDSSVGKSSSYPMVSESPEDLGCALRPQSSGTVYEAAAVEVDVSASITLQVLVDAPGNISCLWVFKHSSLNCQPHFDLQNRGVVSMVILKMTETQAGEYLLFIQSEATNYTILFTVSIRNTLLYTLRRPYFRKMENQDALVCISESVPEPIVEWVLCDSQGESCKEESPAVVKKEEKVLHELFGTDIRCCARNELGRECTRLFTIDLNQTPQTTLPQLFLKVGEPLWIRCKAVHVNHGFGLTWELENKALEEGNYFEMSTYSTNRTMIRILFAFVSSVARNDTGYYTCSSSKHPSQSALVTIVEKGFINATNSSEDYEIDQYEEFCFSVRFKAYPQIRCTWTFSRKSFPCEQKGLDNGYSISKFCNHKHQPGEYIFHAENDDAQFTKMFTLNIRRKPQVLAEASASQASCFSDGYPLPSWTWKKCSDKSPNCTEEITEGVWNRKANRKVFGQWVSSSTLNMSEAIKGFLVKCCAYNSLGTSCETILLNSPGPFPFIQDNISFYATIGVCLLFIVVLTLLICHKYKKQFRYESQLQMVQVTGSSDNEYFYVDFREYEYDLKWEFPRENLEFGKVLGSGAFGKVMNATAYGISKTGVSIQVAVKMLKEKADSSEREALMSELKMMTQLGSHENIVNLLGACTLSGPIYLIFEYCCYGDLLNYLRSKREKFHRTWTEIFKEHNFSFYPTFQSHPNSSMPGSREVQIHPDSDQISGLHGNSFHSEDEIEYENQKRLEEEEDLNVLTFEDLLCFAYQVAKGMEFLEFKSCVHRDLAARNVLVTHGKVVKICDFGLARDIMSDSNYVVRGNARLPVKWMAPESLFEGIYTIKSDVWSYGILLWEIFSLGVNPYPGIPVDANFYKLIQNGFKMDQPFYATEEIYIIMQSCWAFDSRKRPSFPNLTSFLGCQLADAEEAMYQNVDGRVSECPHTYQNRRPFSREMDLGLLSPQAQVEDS

[4] = test system: Receptor-type tyrosine-protein kinase FLT3 (Homo sapiens), P36888 [UNDEFINED MUTATION]; assay: Induction of FLT3-ITD degradation in human MV4-11 cells at 20 nM pretreated with pomalidomide for 2 hrs followed compound addition for 6 hrs by Western blot analysis; assay type: cell-based
[5] = biological target: Mast/stem cell growth factor receptor Kit (Homo sapiens) (UniProt P10721); assay: Induction of KIT degradation in human MOLM-13 cells at 0 to 25 nM after 24 hrs by Western blot analysis; assay type: cell-based; conditions: dose 0-25 nM
Chain of Mast/stem cell growth factor receptor Kit (Homo sapiens) (P10721 whole entry): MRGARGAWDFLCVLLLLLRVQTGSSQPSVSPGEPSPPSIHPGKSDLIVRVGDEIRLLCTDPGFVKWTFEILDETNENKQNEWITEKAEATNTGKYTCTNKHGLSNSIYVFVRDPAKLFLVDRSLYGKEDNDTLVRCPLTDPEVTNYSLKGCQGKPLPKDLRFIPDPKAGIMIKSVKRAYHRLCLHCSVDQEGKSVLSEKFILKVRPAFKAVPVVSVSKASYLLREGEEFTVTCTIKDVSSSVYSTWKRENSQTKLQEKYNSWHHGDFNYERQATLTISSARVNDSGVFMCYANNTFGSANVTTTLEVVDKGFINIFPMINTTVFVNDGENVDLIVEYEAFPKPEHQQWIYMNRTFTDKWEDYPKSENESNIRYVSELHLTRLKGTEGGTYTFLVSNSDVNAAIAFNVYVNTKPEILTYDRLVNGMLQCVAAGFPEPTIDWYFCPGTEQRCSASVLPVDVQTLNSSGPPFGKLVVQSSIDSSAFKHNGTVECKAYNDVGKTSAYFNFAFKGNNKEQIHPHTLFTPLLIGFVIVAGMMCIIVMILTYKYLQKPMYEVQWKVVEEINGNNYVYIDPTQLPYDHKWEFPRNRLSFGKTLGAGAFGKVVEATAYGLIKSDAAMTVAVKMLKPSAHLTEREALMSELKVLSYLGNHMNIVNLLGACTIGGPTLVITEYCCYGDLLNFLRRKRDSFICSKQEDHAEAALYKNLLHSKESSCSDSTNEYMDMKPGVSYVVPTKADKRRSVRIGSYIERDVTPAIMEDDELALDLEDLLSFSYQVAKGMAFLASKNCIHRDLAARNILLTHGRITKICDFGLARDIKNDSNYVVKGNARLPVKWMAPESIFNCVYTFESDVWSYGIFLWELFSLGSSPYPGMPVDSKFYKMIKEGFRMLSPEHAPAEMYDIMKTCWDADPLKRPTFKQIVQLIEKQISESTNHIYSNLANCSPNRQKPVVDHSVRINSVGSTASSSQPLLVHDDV

[6] = test system: MV4-11; assay: Induction of apoptosis in human MV4-11 cells assessed as upregulation of cleaved caspase-3 level at 15 nM by Western blot analysis; assay type: functional, cell-based; conditions: time 0-12 hrs, TDE = time-dependent effect
[7] = test system: Receptor-type tyrosine-protein kinase FLT3 (Homo sapiens), P36888 [UNDEFINED MUTATION]; assay: Induction of FLT3-ITD degradation in human MOLM-13 cells after 24 hrs by Western blot analysis; assay type: cell-based
[8] = biological target: Mast/stem cell growth factor receptor Kit (Homo sapiens) (UniProt P10721); assay: Induction of KIT degradation in human MV4-11 cells at 0 to 25 nM after 24 hrs by Western blot analysis; assay type: cell-based; conditions: dose 0-25 nM
[9] = test system: MV4-11; assay: Induction of apoptosis in human MV4-11 cells after 48 hrs by Annexin-V/PI staining based flow cytometry; assay type: functional, cell-based; conditions: dose 1.25-10 nM
[10] = test system: MV4-11; assay: Antitumor activity against human MV4-11 cells xenografted in NOD/SCID mouse assessed as reduction in CD45-positive cells in bone marrow at 3 mg/kg/day, iv administered for 12 days by flow cytometry analysis (reference value: 32.23 %); assay type: functional; design: scale not given: the % may be the effect or the level left; conditions: time 12 day
[11] = biological target: Platelet-derived growth factor receptor beta (Homo sapiens) (UniProt P09619); assay: Induction of PDGFR degradation in human MOLM-13 cells at 0 to 25 nM after 24 hrs by Western blot analysis; assay type: cell-based; conditions: dose 0-25 nM
Chain of Platelet-derived growth factor receptor beta (Homo sapiens) (P09619 whole entry): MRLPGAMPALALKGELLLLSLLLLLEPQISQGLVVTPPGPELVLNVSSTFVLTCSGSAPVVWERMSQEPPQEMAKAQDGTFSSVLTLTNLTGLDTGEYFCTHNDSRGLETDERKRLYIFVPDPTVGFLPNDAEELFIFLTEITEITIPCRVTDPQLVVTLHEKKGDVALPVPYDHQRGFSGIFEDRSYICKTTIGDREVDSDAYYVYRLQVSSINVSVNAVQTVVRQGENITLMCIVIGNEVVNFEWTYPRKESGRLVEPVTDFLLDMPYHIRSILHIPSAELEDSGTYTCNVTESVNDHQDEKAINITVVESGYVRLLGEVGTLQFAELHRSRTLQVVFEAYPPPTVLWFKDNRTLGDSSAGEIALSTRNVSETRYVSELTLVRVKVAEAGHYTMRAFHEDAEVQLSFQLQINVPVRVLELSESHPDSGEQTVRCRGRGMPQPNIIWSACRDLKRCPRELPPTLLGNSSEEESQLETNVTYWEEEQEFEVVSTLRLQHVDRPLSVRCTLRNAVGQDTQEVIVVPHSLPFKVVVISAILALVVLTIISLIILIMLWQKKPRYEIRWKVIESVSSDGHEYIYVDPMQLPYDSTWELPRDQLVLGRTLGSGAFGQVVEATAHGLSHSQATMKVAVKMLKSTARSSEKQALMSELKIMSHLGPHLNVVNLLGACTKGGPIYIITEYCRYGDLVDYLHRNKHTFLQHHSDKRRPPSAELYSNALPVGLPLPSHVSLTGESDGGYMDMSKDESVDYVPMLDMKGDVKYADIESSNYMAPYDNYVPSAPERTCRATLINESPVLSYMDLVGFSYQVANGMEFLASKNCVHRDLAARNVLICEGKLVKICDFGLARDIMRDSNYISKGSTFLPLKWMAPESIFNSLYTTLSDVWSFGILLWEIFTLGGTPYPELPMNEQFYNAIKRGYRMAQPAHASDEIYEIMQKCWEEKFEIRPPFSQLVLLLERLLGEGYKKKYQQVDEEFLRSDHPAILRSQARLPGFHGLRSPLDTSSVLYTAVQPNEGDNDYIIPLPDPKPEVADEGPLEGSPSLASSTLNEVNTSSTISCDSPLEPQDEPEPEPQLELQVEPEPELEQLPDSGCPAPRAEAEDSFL

[12] = biological target: Receptor-type tyrosine-protein kinase FLT3 (Homo sapiens) (UniProt P36888); assay: Inhibition of FLT3 in human MOLM-13 cells assessed as reduction in STAT5 phosphorylation at 15 nM by Western blot analysis; assay type: cell-based; conditions: time 0-12 hrs, TDE = time-dependent effect
Chain of Receptor-type tyrosine-protein kinase FLT3 (Homo sapiens) (P36888 whole entry): as the sequence (P36888 whole entry, looked up, change not shown) above

[13] = biological target: Receptor-type tyrosine-protein kinase FLT3 (Homo sapiens) (UniProt P36888); assay: Inhibition of FLT3 in human MOLM-13 cells assessed as reduction in FLT3 phosphorylation at 15 nM by Western blot analysis; assay type: cell-based; conditions: time 0-12 hrs, TDE = time-dependent effect
[14] = test system: MOLM-13; assay: Induction of apoptosis in human MOLM-13 cells assessed as downregulation of Mcl-1 level at 15 nM measured upto 12 hrs by Western blot analysis; assay type: functional, cell-based; conditions: time hrs <=12
[15] = test system: MOLM-13; assay: Induction of apoptosis in human MOLM-13 cells assessed as upregulation of cleaved caspase-3 level at 15 nM by Western blot analysis; assay type: functional, cell-based; conditions: time 0-12 hrs, TDE = time-dependent effect
[16] = Toxicity in NOD/SCID mouse xenografted with human MV4-11 cells assessed as effect on body weight at 3 mg/kg/day, iv administered for 12 hrs; assay type: organism-based; conditions: in vivo
[17] = test system: Receptor-type tyrosine-protein kinase FLT3 (Homo sapiens), P36888 [UNDEFINED MUTATION]; assay: Induction of FLT3-ITD degradation in human MV4-11 cells at 20 nM pretreated with dov for 2 hrs followed compound addition for 6 hrs by Western blot analysis; assay type: cell-based
[18] = biological target: Mast/stem cell growth factor receptor Kit (Homo sapiens) (UniProt P10721); assay: Inhibition of KIT in human MOLM-13 cells assessed as reduction in STAT3 phosphorylation at 5 to 25 nM after 24 hrs by Western blot analysis; assay type: cell-based; conditions: dose 5-25 nM
[19] = biological target: Receptor-type tyrosine-protein kinase FLT3 (Homo sapiens) (UniProt P36888); assay: Inhibition of FLT3 in human MV4-11 cells assessed as reduction in AKT phosphorylation at 15 nM by Western blot analysis; assay type: cell-based; conditions: time 0-12 hrs, TDE = time-dependent effect
[20] = biological target: Mast/stem cell growth factor receptor Kit (Homo sapiens) (UniProt P10721); assay: Inhibition of KIT in human MV4-11 cells assessed as reduction in STAT3 phosphorylation at 5 to 25 nM after 24 hrs by Western blot analysis; assay type: cell-based; conditions: dose 5-25 nM
[21] = biological target: Receptor-type tyrosine-protein kinase FLT3 (Homo sapiens) (UniProt P36888); assay: Inhibition of FLT3 in human MV4-11 cells assessed as reduction in FLT3 phosphorylation at 15 nM by Western blot analysis; assay type: cell-based; conditions: time 0-12 hrs, TDE = time-dependent effect
[22] = test system: MOLM-13; assay: Reduction in intracellular ROS level in human MOLM-13 cells measured after 12 hrs by DCFH-DA probe based flow cytometry; assay type: functional, cell-based; conditions: dose 25-200 nM
[23] = test system: MV4-11; assay: Induction of apoptosis in human MV4-11 cells assessed as downregulation of Mcl-1 level at 15 nM measured upto 12 hrs by Western blot analysis; assay type: functional, cell-based; conditions: time hrs <=12
[24] = test system: MOLM-13; assay: Induction of apoptosis in human MOLM-13 cells assessed as downregulation of Bcl-2 level at 15 nM measured upto 12 hrs by Western blot analysis; assay type: functional, cell-based; conditions: time hrs <=12
[25] = biological target: Platelet-derived growth factor receptor beta (Homo sapiens) (UniProt P09619); assay: Induction of PDGFR degradation in human MV4-11 cells at 0 to 25 nM after 24 hrs by Western blot analysis; assay type: cell-based; conditions: dose 0-25 nM
[26] = biological target: Receptor-type tyrosine-protein kinase FLT3 (Homo sapiens) (UniProt P36888); assay: Inhibition of FLT3 in human MV4-11 cells assessed as reduction in STAT5 phosphorylation at 15 nM by Western blot analysis; assay type: cell-based; conditions: time 0-12 hrs, TDE = time-dependent effect
[27] = test system: Receptor-type tyrosine-protein kinase FLT3 (Homo sapiens), P36888 [UNDEFINED MUTATION]; assay: Induction of FLT3-ITD degradation in human MV4-11 cells assessed as accumulation of ubiquitinated FLT3-ITD at 15 nM preincubated for 4 hrs followed by MG132 addition for 2 hrs by immunoprecipitation assay; assay type: cell-based; conditions: time 6.0 hrs
[28] = biological target: Mast/stem cell growth factor receptor Kit (Homo sapiens) (UniProt P10721); assay: Inhibition of KIT in human MOLM-13 cells assessed as reduction in PI3K phosphorylation at 5 to 25 nM after 24 hrs by Western blot analysis; assay type: cell-based; conditions: dose 5-25 nM
[29] = biological target: Mast/stem cell growth factor receptor Kit (Homo sapiens) (UniProt P10721); assay: Inhibition of KIT in human MV4-11 cells assessed as reduction in PI3K phosphorylation at 5 to 25 nM after 24 hrs by Western blot analysis; assay type: cell-based; conditions: dose 5-25 nM
[30] = biological target: Receptor-type tyrosine-protein kinase FLT3 (Homo sapiens) (UniProt P36888); assay: Inhibition of FLT3 in human MV4-11 cells assessed as reduction in ERK phosphorylation at 15 nM by Western blot analysis; assay type: cell-based; conditions: time 0-12 hrs, TDE = time-dependent effect
[31] = test system: MV4-11; assay: Induction of apoptosis in human MV4-11 cells assessed as downregulation of Bcl-2 level at 15 nM measured upto 12 hrs by Western blot analysis; assay type: functional, cell-based; conditions: time hrs <=12
[32] = test system: MV4-11; assay: Reduction in intracellular ROS level in human MV4-11 cells measured after 12 hrs by DCFH-DA probe based flow cytometry; assay type: functional, cell-based; conditions: dose 25-200 nM
[33] = biological target: Receptor-type tyrosine-protein kinase FLT3 (Homo sapiens) (UniProt P36888); assay: Inhibition of FLT3 in human MOLM-13 cells assessed as reduction in ERK phosphorylation at 15 nM by Western blot analysis; assay type: cell-based; conditions: time 0-12 hrs, TDE = time-dependent effect
[34] = test system: MOLM-13; assay: Induction of apoptosis in human MOLM-13 cells after 48 hrs by Annexin-V/PI staining based flow cytometry; assay type: functional, cell-based; conditions: dose 1.25-10 nM
[35] = test system: Receptor-type tyrosine-protein kinase FLT3 (Homo sapiens), P36888 [UNDEFINED MUTATION]; assay: Induction of FLT3-ITD degradation in human MV4-11 cells at 20 nM pretreated with MG132 for 2 hrs followed compound addition for 6 hrs by Western blot analysis; assay type: cell-based
[36] = biological target: Receptor-type tyrosine-protein kinase FLT3 (Homo sapiens) (UniProt P36888); assay: Inhibition of FLT3 in human MOLM-13 cells assessed as reduction in AKT phosphorylation at 15 nM by Western blot analysis; assay type: cell-based; conditions: time 0-12 hrs, TDE = time-dependent effect

## Nc1c(-c2nc3cc(N4CCN(CCCCCCC(=O)Nc5cccc6c5C(=O)N(C5CCC(=O)NC5=O)C6=O)CC4)ccc3[nH]2)c(=O)[nH]c2cccc(F)c12 (stereo not given)
[1]
  IC50: > 1 µM
[2]
  IC50: 0.418 µM

## Nc1c(-c2nc3cc(N4CCN(C(=O)CCCCNc5cccc6c5C(=O)N(C5CCC(=O)NC5=O)C6=O)CC4)ccc3[nH]2)c(=O)[nH]c2cccc(F)c12 (stereo not given)
[3]
  Activity: Dose-Dependent Effect
[4]
  Activity: inactive
[5]
  Activity: Active
[6]
  Activity: Tde
[7]
  Activity: Dose-Dependent Effect
[8]
  Activity: Active
[9]
  Activity: Dose-Dependent Effect
[10]
  Activity: 5.25%
[11]
  Activity: Active
[12]
  inhibition: Tde
[13]
  inhibition: Tde
[14]
  Activity: Active
[15]
  Activity: Tde
[16]
  Activity: Non-Toxic
[17]
  Activity: inactive
[18]
  inhibition: Active
[19]
  inhibition: Tde
[20]
  inhibition: Active
[21]
  inhibition: Tde
[22]
  Activity: Dose-Dependent Effect
[23]
  Activity: Active
[24]
  Activity: Active
[1]
  IC50: 0.0101 µM
[25]
  Activity: Active
[26]
  inhibition: Tde
[27]
  Activity: Active
[28]
  inhibition: Active
[29]
  inhibition: Active
[30]
  inhibition: Tde
[31]
  Activity: Active
[32]
  Activity: Dose-Dependent Effect
[33]
  inhibition: Tde
[34]
  Activity: Dose-Dependent Effect
[2]
  IC50: 0.0187 µM
[35]
  Activity: inactive
[36]
  inhibition: Tde

## Nc1c(-c2nc3cc(N4CCN(CCCCCCCC(=O)Nc5cccc6c5C(=O)N(C5CCC(=O)NC5=O)C6=O)CC4)ccc3[nH]2)c(=O)[nH]c2cccc(F)c12 (stereo not given)
[1]
  IC50: > 1 µM
[2]
  IC50: > 1 µM

## Nc1c(-c2nc3cc(N4CCN(C(=O)CCCC#Cc5cccc6c5C(=O)N(C5CCC(=O)NC5=O)C6=O)CC4)ccc3[nH]2)c(=O)[nH]c2cccc(F)c12 (stereo not given)
[1]
  IC50: 0.0937 µM
[2]
  IC50: 0.424 µM

## Nc1c(-c2nc3cc(N4CCN(CCCCCCC(=O)Nc5cccc6c5CN(C5CCC(=O)NC5=O)C6=O)CC4)ccc3[nH]2)c(=O)[nH]c2cccc(F)c12 (stereo not given)
[1]
  IC50: > 1 µM
[2]
  IC50: > 1 µM

## Cc1ncsc1-c1ccc(CNC(=O)[C@H]2C[C@H](O)CN2C(=O)[C@H](NC(=O)CCCCC(=O)N2CCN(c3ccc4[nH]c(-c5c(N)c6c(F)cccc6[nH]c5=O)nc4c3)CC2)C(C)(C)C)cc1
[1]
  IC50: 0.185 µM
[2]
  IC50: 0.415 µM

## Nc1c(-c2nc3cc(N4CCN(C(=O)CCC#Cc5cccc6c5C(=O)N(C5CCC(=O)NC5=O)C6=O)CC4)ccc3[nH]2)c(=O)[nH]c2cccc(F)c12 (stereo not given)
[1]
  IC50: > 1 µM
[2]
  IC50: 0.929 µM

## Nc1c(-c2nc3cc(N4CCN(C(=O)CCCCCCNc5cccc6c5C(=O)N(C5CCC(=O)NC5=O)C6=O)CC4)ccc3[nH]2)c(=O)[nH]c2cccc(F)c12 (stereo not given)
[1]
  IC50: 0.13 µM
[2]
  IC50: 0.416 µM
